Measurements: patent US20130131043A1, “PYRAZOLE COMPOUNDS AS JAK INHIBITORS” (priority 2010, published 2013)

How the values were obtained:
[1] = in vivo; cited from earlier work
JAK2 = target: T1, JAK2 (Homo sapiens, UniProt O60674); assay: Kinobeads assay, JAK2 (competition binding in cell lysate, dot blot detection); settings: mixed Molt4/Ramos lysate
T1 construct: endogenous in cells; host or cells: Molt4 (ATCC CRL-1582) and Ramos (ATCC CRL-1596) cell lysate; mixed Molt4/Ramos lysate 1:2
Method in brief: (§1)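 Competition binding of compound against immobilized aminopyrido-pyrimidine affinity beads in mixed Molt4/Ramos lysate (1:2, 10 mg/mL protein), 3 h in cold room. Bead-bound JAK2 or JAK3 eluted and quantified by antibody dot blot with infrared detection; IC50 from 9-step 1:3 dose-response curves.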

JAK3 = target: T2, JAK3 (Homo sapiens, UniProt P52333); assay: Kinobeads assay, JAK3 (competition binding in cell lysate, dot blot detection); settings: mixed Molt4/Ramos lysate
T2 construct: endogenous in cells; host or cells: Molt4 (ATCC CRL-1582) and Ramos (ATCC CRL-1596) cell lysate; mixed Molt4/Ramos lysate 1:2
T2 sequence (P52333 1-1124): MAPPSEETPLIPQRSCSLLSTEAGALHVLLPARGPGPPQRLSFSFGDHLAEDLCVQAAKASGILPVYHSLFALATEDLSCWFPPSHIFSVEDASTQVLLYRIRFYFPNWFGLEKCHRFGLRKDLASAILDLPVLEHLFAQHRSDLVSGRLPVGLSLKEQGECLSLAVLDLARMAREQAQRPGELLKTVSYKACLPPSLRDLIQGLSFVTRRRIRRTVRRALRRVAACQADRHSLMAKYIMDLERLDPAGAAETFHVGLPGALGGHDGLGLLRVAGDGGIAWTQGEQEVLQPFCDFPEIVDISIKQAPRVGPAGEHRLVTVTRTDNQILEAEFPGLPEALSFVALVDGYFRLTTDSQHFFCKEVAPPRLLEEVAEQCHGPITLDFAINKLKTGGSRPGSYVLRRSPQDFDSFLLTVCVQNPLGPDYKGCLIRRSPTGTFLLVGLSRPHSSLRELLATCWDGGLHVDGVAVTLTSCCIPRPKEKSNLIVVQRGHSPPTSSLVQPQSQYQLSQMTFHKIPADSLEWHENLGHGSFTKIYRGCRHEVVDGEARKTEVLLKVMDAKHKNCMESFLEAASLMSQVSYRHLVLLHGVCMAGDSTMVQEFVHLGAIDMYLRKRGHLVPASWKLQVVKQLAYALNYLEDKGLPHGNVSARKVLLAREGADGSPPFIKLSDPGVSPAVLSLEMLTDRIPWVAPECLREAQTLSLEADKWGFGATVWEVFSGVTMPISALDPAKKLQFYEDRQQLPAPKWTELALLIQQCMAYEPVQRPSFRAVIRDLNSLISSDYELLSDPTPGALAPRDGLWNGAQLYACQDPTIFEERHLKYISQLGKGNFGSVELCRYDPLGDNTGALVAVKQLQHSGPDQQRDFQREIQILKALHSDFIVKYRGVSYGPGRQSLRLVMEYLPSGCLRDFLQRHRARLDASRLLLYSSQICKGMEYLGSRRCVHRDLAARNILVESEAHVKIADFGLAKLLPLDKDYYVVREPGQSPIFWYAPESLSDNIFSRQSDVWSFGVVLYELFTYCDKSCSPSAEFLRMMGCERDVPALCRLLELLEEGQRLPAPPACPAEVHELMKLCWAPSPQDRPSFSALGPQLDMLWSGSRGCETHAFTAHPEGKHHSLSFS
Method in brief: as §1

[2] = NOD mouse model of type I diabetes; cited from earlier work
[3] = in vivo; cited from earlier work; remark: listed apart in the source

T1 sequence (O60674 whole entry): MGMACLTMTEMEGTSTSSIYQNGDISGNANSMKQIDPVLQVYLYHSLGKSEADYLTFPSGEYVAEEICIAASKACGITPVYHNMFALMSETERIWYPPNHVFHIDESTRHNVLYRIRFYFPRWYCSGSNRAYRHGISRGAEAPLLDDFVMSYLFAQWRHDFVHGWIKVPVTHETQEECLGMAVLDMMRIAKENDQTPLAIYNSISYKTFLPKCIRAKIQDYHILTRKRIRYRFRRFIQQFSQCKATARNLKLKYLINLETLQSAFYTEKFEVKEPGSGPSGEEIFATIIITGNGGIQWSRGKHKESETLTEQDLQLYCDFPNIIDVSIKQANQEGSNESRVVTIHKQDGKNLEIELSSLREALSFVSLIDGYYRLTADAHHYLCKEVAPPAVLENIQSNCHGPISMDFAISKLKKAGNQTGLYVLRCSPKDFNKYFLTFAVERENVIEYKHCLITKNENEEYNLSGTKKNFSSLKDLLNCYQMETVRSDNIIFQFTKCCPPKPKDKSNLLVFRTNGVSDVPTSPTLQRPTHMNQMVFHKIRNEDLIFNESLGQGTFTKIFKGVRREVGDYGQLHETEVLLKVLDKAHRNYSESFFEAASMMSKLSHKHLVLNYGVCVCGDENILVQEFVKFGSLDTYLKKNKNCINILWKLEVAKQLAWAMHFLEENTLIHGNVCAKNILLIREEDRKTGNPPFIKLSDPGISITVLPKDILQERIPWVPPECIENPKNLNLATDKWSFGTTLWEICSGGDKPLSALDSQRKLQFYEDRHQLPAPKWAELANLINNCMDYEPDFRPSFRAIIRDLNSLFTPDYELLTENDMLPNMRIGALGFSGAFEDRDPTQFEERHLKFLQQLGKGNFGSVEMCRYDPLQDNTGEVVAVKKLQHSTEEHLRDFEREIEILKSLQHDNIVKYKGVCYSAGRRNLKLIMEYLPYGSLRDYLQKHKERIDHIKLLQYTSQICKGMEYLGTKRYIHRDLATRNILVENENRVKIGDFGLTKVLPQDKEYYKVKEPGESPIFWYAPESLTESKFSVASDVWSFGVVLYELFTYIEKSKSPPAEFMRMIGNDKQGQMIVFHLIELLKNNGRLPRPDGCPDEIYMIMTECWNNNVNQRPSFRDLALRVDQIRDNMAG

| Compound | IC50 (JAK2) | IC50 (JAK3) | efficacy in an animal model of organ transplantation [1] | spontaneous autoimmune diabetes development [2] | severity of GVHD [3] |
| --- | --- | --- | --- | --- | --- |
| C[C@@H]1CCN(C(=O)CC#N)C[C@@H]1N(C)c1ncnc2[nH]ccc12 [CP-690,550] |  |  | show efficacy |  |  |
| COCCCN1CCCC(Cn2ncc3cnc(Nc4cnn(C)c4)nc32)C1 (stereo not shown) [Example 58, 1-((1-(3-methoxypropyl)piperidin-3-yl)methyl)-N-(1-methyl-1H-pyrazol-4-yl)-1H-pyrazolo[3,4-d]pyrimidin-6-amine] | > 10000 nM | 100 to 1000 nM |  |  |  |
| CC(C)S(=O)(=O)N1CCCC(Cn2ncc3cnc(Nc4cnn(CC(F)F)c4)nc32)C1 (stereo not shown) [Example 61, N-(1-(2,2-difluoroethyl)-1H-pyrazol-4-yl)-1-((1-(isopropylsulfonyl)piperidin-3-yl)methyl)-1H-pyrazolo[3,4-d]pyrimidin-6-amine] | 1000 to 10000 nM | < 100 nM |  |  |  |
| Cn1cc(Nc2ncc3cnn(CC4CCCN(CCCS(C)(=O)=O)C4)c3n2)cn1 (stereo not shown) [Example 62, N-(1-methyl-1H-pyrazol-4-yl)-1-((1-(3-(methylsulfonyl)propyl)piperidin-3-yl)methyl)-1H-pyrazolo[3,4-d]pyrimidin-6-amine] | 1000 to 10000 nM | < 100 nM |  |  |  |
| CC(C)NC(=O)CN1CCCC(Cn2ncc3cnc(Nc4cnn(C)c4)nc32)C1 (stereo not shown) [Example 63, N-isopropyl-2-(3-((6-((1-methyl-1H-pyrazol-4-yl)amino)-1H-pyrazolo[3,4-d]pyrimidin-1-yl)methyl)piperidin-1-yl)acetamide] | > 10000 nM | 100 to 1000 nM |  |  |  |
| CNC(=O)CN1CCCC(Cn2ncc3cnc(Nc4cnn(C)c4)nc32)C1 (stereo not shown) [Example 64, N-methyl-2-(3-((6-((1-methyl-1H-pyrazol-4-yl)amino)-1H-pyrazolo[3,4-d]pyrimidin-1-yl)methyl)piperidin-1-yl)acetamide] | 1000 to 10000 nM | < 100 nM |  |  |  |
| CN(C)C(=O)N1CCCC(Cn2ncc3cnc(Nc4cnn(C)c4)nc32)C1 (stereo not shown) [Example 65, N,N-dimethyl-3-((6-((1-methyl-1H-pyrazol-4-yl)amino)-1H-pyrazolo[3,4-d]pyrimidin-1-yl)methyl)piperidine-1-carboxamide] | 1000 to 10000 nM | < 100 nM |  |  |  |
| Cn1cc(Nc2ncc3cnn(CC4CCCN(CC(F)F)C4)c3n2)cn1 (stereo not shown) [Example 67, 1-((1-(2,2-difluoroethyl)piperidin-3-yl)methyl)-N-(1-methyl-1H-pyrazol-4-yl)-1H-pyrazolo[3,4-d]pyrimidin-6-amine] | 1000 to 10000 nM | < 100 nM |  |  |  |
| COc1cc2ncnc(Nc3ccc(O)cc3)c2cc1OC [JANEX-1] |  |  |  | prevent spontaneous autoimmune diabetes development | attenuate the severity of GVHD |

Now from value to molecule, other results behind:

| IC50 (JAK2) | IC50 (JAK3) | Compound | efficacy in an animal model of organ transplantation [1] | spontaneous autoimmune diabetes development [2] | severity of GVHD [3] |
| --- | --- | --- | --- | --- | --- |
| > 10000 nM | 100 to 1000 nM | CS(=O)(=O)CCC(=O)N1CCCC(Cn2ncc3cnc(Nc4cnn(CC(F)F)c4)nc32)C1 (stereo not shown) [Example 59, 1-(3-((6-((1-(2,2-difluoroethyl)-1H-pyrazol-4-yl)amino)-1H-pyrazolo[3,4-d]pyrimidin-1-yl)methyl)piperidin-1-yl)-3-(methylsulfonyl)propan-1-one] |  |  |  |
| 1000 to 10000 nM | 100 to 1000 nM | N#CCN1CCCC(Cn2ncc3cnc(Nc4cnn(CC(F)F)c4)nc32)C1 (stereo not shown) [Example 60, 2-(3-((6-((1-(2,2-difluoroethyl)-1H-pyrazol-4-yl)amino)-1H-pyrazolo[3,4-d]pyrimidin-1-yl)methyl)piperidin-1-yl)acetonitrile] |  |  |  |
| 1000 to 10000 nM | < 100 nM | Cn1cc(Nc2ncc3cnn(CC4CCCN(CCO)C4)c3n2)cn1 (stereo not shown) [Example 66, 2-(3-((6-((1-methyl-1H-pyrazol-4-yl)amino)-1H-pyrazolo[3,4-d]pyrimidin-1-yl)methyl)piperidin-1-yl)ethanol] |  |  |  |
| > 10000 nM | 100 to 1000 nM | CC(C)NC(=O)CN1CCC(Cn2ncc3cnc(Nc4cnn(C)c4)nc32)C1 (stereo not shown) [Example 68, N-isopropyl-2-(3-((6-((1-methyl-1H-pyrazol-4-yl)amino)-1H-pyrazolo[3,4-d]pyrimidin-1-yl)methyl)pyrrolidin-1-yl)acetamide] |  |  |  |
